In US11161823B2, “Anticancer 1,3-dioxane-4,6-dione derivatives and method of combinatorial synthesis thereof” (National Guard Health Affairs, priority 2019, dated 2021):

How the values were obtained:
[1] = system: MDA-MD 231 (breast), MCF-7 (breast), KAIMRC1 (breast), HCT116 (colon) and HCT8 (colon); assay: MTT assay, review of Tables 5 and 6 (whole cell line panel); type: cell-based, human; conditions: review of Tables 5 and 6, MTT IC50
Description: (§1) Cell Culture: The human breast cancer epithelial cell lines MDA-MB-231 (HTB-26™), MCF-7 (HTB-22™), colon cancer cell lines HCT 116 (CCL-247™) and […] (CCL-244™) were obtained from American Type Culture Collection (ATCC). Additionally, KAIMRC1 cell line was isolated and developed at KAIMRC from a breast cancer patient. All the cells were grown in advanced DMEM containing 10% fetal bovine serum (FBS), 50 units/mL penicillin, 50 ug/mL streptomycin (GIBCO), and 2 mM glutamine (GIBCO). The cells were cultured at 37° C. in a humidified 5% CO2 atmosphere for 24 hours before experimental procedure.
(§2) Cell Proliferation Assay (MTT): Cells were plated on flat-bottom 96-well plates at a density of 5×10^3 cells/well in 100 μL growth medium. Serial dilutions of the compounds, ranging from 100 nM-100 μM were tested on the cells in triplicates. Additional rows with only the compounds and only cells were added in order to account for the compounds and cells effect. Cells were incubated with compounds for 48 h at 37° C. with 5% CO2.
(§3) After 48 h treatment, the cell viability was determined using the MTT viability assay. Briefly, 5 μL of MTT reagent (5 mg/mL stock) per 95 μl cell culture medium was added to each well and incubated for 3 h at 37° C. with 5% CO2. After 3 h the supernatant was removed, and the MTT formazan crystals were dissolved in dimethyl sulfoxide (DMSO) by shaking the plate for 30 mins at RT. The absorbance was measured on Molecular Devices microplate absorbance reader at 560 nm. The percentage of viable cells was calculated as the ratio of the absorbance of the treated group divided by the absorbance of the control group multiplied by 100. The absorbance from the untreated control cells was set as 100% viable. IC50 values were calculated from dose-response curves generated using a polynomial dose-response approximation using Prism 8 software. The IC50 values (µM) obtained for the compounds of present invention on MDA-MD 231 (breast), MCF-7 (breast), KAIMRC1 (breast), HCT116 (colon) and HCT8 (colon) are summarized in Table 5 and 6.
The presence of nitrogen in certain positions of quinoline and/or iso-quinoline ring is the structure-activity determinant, and the subsequent variations in the nitrogen positions and substituents in this ring produce stronger leads by the methods of combinatorial expansion disclosed herein.

ThP1 (leukemia) = assay: Cell Titre Glo luminescent cell viability assay, ThP1; type: cell-based; conditions: Homo sapiens, THP-1; Cell Titre Glo luminescence, normalized to DMSO controls
Description: (§4) Another embodiment discloses Titer Glo Assay for the characterization of the synthesized compounds. The CellTiter-Glo® Luminescent Cell Viability Assay is a homogeneous method of determining the number of viable cells in culture based on quantitation of the ATP present, an indicator of metabolically active cells. The CellTiter-Glo® Assay is designed for use with multiwell formats, making it ideal for automated high-throughput screening (HTS), cell proliferation, and cytotoxicity assays. The homogeneous assay procedure involves adding the single reagent (CellTiter-Glo® Reagent) directly to cells cultured in serum-supplemented medium. Cell washing, removal of medium, and multiple pipetting steps are not required. The system detects as few as 15 cells/well in a 384-well format in 10 minutes after adding reagent and mixing.
as §1
(§5) Cell Titre Glo assay was performed on two Leukemia cell lines, HL 60 and ThP1 as per manufacturer's (Promega) recommendations. Briefly, plates were prepared as mentioned in cell culture section. 100 µL of Cell Titre Glo was added directly to the wells. After incubation for 30 minutes at room temperature, luminescence was measured using the Envision plate reader (Perkin Elmer). Luminescence readings were normalized to averaged DMSO controls and expressed as relative percentage. IC50 values were calculated from dose-response curves generated using a polynomial dose-response approximation using Prism 8 software.

KAIMRC1 (Breast) = assay: MTT cell proliferation assay, KAIMRC1; type: cell-based, human; conditions: Homo sapiens; MTT, 48 h treatment, medium with 10% FBS; read-out: IC50 μM KAIMRC1 (Breast)
Description: The immortalized cell lines included in the testing panel of this disclosure are MCF7 (a breast cancer cell line), MCF10 (immortalized human breast epithelial cells), MDA-MB231 (an epithelial, human breast cancer cell line that was established from a pleural effusion of a patient with a metastatic mammary adenocarcinoma), KAIMRC1 (a naturally immortalized human breast carcinoma cell line), KAIMRC2 (a naturally immortalized breast cancer cell line). The primary cells available for lead toxicity assays are, without limitation: hepatocytes (supplied by Xenotech, Bioscience Lonza, Accegen, Biocompare, Gibco, Zen-Bio, Takarabio, AxolBio, Creative Bioarray), cardiomyocytes (supplied by Cellartis, Axolbio, Cedarlanelabs, EMD Millipore, Takara Bio, Neuromics, AcceGene), primary neurons (AcceGen, Cellapplications, Neuromics, Biocompare, AxolBio, BrainXcell), endothelial lining (Thermofisher, Accegen, Biocompare, Promocell, ATCC). Multicellular 3D organoids raised by differentiating iPSC (induced pluripotent stem cells) are provided by Sigma Aldrich (the iPSC cell lines, organoids), Tocris Bioscience, Thermofisher, Stemcell Technologies, Takara Bio, Emulatebio (Human organ chips), Prodolabs.
as §1, §2, §3

[2] = system: MDA MB-231 cell line (Breast); assay: MTT cell proliferation assay, MDA MB-231; type: cell-based, human; conditions: Homo sapiens, MDA-MB-231; MTT, 48 h treatment, medium with 10% FBS; read-out: IC50 μM MDA MB-231 (Breast)
Description: as §1, §2, §3

HL 60 (leukemia) = assay: Cell Titre Glo luminescent cell viability assay, HL 60; type: cell-based; conditions: Homo sapiens, HL-60; Cell Titre Glo luminescence, normalized to DMSO controls
Description: as §4, §1, §5

MCF-7 (Breast) = assay: MTT cell proliferation assay, MCF-7; type: cell-based, human; conditions: Homo sapiens, MCF7; MTT, 48 h treatment, medium with 10% FBS; read-out: IC50 μM MCF-7 (Breast)
Description: as §1, §2, §3

HCT116 (Colon) = assay: MTT cell proliferation assay, HCT116; type: cell-based, human; conditions: Homo sapiens, HCT-116; MTT, 48 h treatment, medium with 10% FBS; read-out: IC50 μM HCT116 (Colon)
Description: as §1, §2, §3

HCT 8 (Colon) = assay: MTT cell proliferation assay, HCT 8; type: cell-based, human; conditions: Homo sapiens, HCT-8; MTT, 48 h treatment, medium with 10% FBS; read-out: IC50 μM HCT 8 (Colon)
Description: as §1, §2, §3

IC50 (MCF-7 (Breast)) | IC50 (HCT116 (Colon)) | IC50 (HCT 8 (Colon)) | SMILES | range of activity compared with Mitoxanthrone [1] | IC50 (ThP1 (leukemia)) | IC50 (KAIMRC1 (Breast)) | IC50 [2] | IC50 (HL 60 (leukemia))
9.29 µM | 2.47 µM | 1.87 µM | CCC1(C)OC(=O)C(=CC=Cc2cncc3ccccc23)C(=O)O1 (stereo not shown) [Example 12, 2-ETHYL-5-(3-ISOQUINOLIN-4-YL-ALLYLIDENE)-2-METHYL-[1,3]DIOXANE-4,6-DIONE] | range of activity that begins to overlap with that of Mitoxanthrone | 1.82 µM | 4.25 µM | 6.05 µM | 2.05 µM
9.15 µM | 6.38 µM | 19.8 µM | CCC1(C)OC(=O)C(=CC=Cc2ccnc3ccccc23)C(=O)O1 (stereo not shown) [Example 13, 2-ETHYL-2-METHYL-5-(3-QUINOLIN-4-YL-ALLYLIDENE)-[1,3]DIOXANE-4,6-DIONE] | range of activity that begins to overlap with that of Mitoxanthrone | 0.88 µM | 14.4 µM | 11 µM | 1.04 µM
